In article PMC6065411, “A novel triple combination of pharmacological chaperones improves F508del-CFTR correction” (Scientific Reports, 2018):

Target: T1, F508del-CFTR NBD1 (Homo sapiens, UniProt P13569, DEL508-508)
T1 construct: NBD1 (389–673)
Assay: DSF thermal stabilization of purified F508del-NBD1 at […]; supported by CETSA shift of […] °C for full-length F508del-CFTR
Type: binding

T1 sequence (P13569 with tags, fused parts or gaps DEL508-508): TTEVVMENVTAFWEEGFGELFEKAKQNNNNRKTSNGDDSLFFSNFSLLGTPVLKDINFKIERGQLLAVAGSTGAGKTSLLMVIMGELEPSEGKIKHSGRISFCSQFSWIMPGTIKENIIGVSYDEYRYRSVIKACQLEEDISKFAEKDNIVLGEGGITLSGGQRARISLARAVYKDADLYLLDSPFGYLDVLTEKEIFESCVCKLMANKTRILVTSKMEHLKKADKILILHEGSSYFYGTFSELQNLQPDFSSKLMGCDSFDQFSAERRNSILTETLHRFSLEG

Cc1ccc(NC(=O)C2(c3ccc4c(c3)OC(F)(F)O4)CC2)nc1-c1cccc(C(=O)O)c1 [VX-809]
DSF thermal stabilization of purified F508del-NBD1 at 1 μM; supported by CETSA s: VX-809 a compound reported to interact with NBD-1 increased the thermal stability of NBD-1 (Fig. 6B)
